In US12371454B2, “Cyclic peptide compound having Kras inhibitory action” (priority 2019, dated 2025):
Starred links: 1 amine or outer side, 2 acyl side, 3 side chain; linkers in the order of their positions; H or OH if unused. Positions of bridges follow the written chain, without caps; N, C: chain ends. Non-standard residues stand in square brackets, D forms with d. Residues, ends and D or L forms follow the SMILES beside them. *: point of attachment. hPhe(3-Cl-4-CF3) = N[C@@H](CCc1ccc(C(F)(F)F)c(Cl)c1)C(=O)O; NMePhe(4-CF3) = CN[C@@H](Cc1ccc(C(F)(F)F)cc1)C(=O)O; Phe(3-CF3) = N[C@@H](Cc1cccc(C(F)(F)F)c1)C(=O)O; NMeAbu(4,4,4-F3) = CN[C@@H](CC(F)(F)F)C(=O)O; NMePhe(4-Cl) = CN[C@@H](Cc1ccc(Cl)cc1)C(=O)O; NMePhe(4-Me) = CN[C@@H](Cc1ccc(C)cc1)C(=O)O; hPhe(3-Cl) = N[C@@H](CCc1cccc(Cl)c1)C(=O)O; NMedβ3hAla = C[C@H](CC(=O)[*:2])N(C)[*:1]; NMeGly(cPent) = CN[C@H](C(=O)O)C1CCCC1; Phe(3-I) = N[C@@H](Cc1cccc(I)c1)C(=O)O; Pro(4,4-F2) = O=C(O)[C@@H]1CC(F)(F)CN1; NMeY = CN[C@@H](Cc1ccc(O)cc1)C(=O)O; NMeCha = CN[C@@H](CC1CCCCC1)C(=O)O; NMeGly(cPr) = CN[C@H](C(=O)O)C1CC1; NMeCba = CN[C@@H](CC1CCC1)C(=O)O; NMeChg = CN[C@H](C(=O)O)C1CCCCC1; NMeF = CN[C@@H](Cc1ccccc1)C(=O)O; NMeD = CN[C@@H](CC(=O)O)C(=O)O; NMeL = CN[C@@H](CC(C)C)C(=O)O; NMeNva = CCC[C@H](NC)C(=O)O; NMeV = CN[C@H](C(=O)O)C(C)C; d(β3hA) = C[C@@H](N)CC(=O)O; NMeA = CN[C@@H](C)C(=O)O; NMeAib = CNC(C)(C)C(=O)O; Nle = CCCC[C@H](N)C(=O)O; Piperidide = C1CCN(*)CC1; Pra = C#CC[C@H](N)C(=O)O; Pyrrolidide = C1CCN(*)C1; Ac5c = NC1(C(=O)O)CCCC1; Aze = O=C(O)[C@@H]1CCN1; CF3 = FC(F)(F)*; Sar = CNCC(=O)O

molecular target: T1, Kras and SOS1 (biotin-tagged human Kras loaded with GDP, His-tagged human SOS1) (Homo sapiens, UniProt P01116, G12D); assay: Protein-protein interaction inhibition between Kras and SOS1 (KrasGl2D-SOS PPI) using AlphaScreen; assay type: binding; conditions: AlphaScreen; biotin-tagged human Kras loaded with GDP, His-tagged human SOS1; read-out: KRAS G12D-SOS PPI IC50
T1 construct: made in house; host or cells: E. coli (stated for Kras only)
Procedure, shortened: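 AlphaScreen format: Ni donor beads capture His-SOS1, streptavidin acceptor beads capture biotinylated Kras (E. coli-expressed, GDP-loaded post-purification). Excite 680 nm, read 520-620 nm.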

T1 sequence (P01116 1-188 isoform P01116-2 G12D): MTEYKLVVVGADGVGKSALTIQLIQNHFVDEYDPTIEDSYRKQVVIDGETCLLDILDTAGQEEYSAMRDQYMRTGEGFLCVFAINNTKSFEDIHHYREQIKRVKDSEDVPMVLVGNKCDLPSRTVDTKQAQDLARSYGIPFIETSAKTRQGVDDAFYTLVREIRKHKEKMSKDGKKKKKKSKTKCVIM

Row | SMILES | IC50 [nM]
1 | CC[C@H](C)[C@@H]1NC(=O)[C@H](CC(C)C)N(C)C(=O)C[C@@H](C(=O)N2CCCCC2)N(C)C(=O)[C@H](CC(C)C)NC(=O)C(C)(C)N(C)C(=O)[C@H](Cc2cccc(C(F)(F)F)c2)NC(=O)[C@H](Cc2cccc(I)c2)NC(=O)CN(C)C(=O)[C@H](Cc2ccc(C)cc2)N(C)C(=O)CN(C)C(=O)CN(C)C1=O [Compound 376] ([NMeL]I[Sar][Sar][NMePhe(4-Me)][Sar][Phe(3-I)][Phe(3-CF3)][NMeAib]L[NMeD]-Piperidide; lactam N-11) | 44
2 | CCC[C@H]1C(=O)N(C)CC(=O)N[C@@H](CCc2ccc(C(F)(F)F)c(Cl)c2)C(=O)N2CCC[C@H]2C(=O)NC2(CCCC2)C(=O)N(C)[C@@H](C(C)C)C(=O)N(C)[C@H](C(=O)N2CCCCC2)CC(=O)N(C)[C@@H](CC(C)C)C(=O)N[C@@H]([C@@H](C)CC)C(=O)N(C)[C@@H](C)C(=O)N2CC[C@H]2C(=O)N1C [Compound 1027] ([NMeL]I[NMeA][Aze][NMeNva][Sar][hPhe(3-Cl-4-CF3)]P[Ac5c][NMeV][NMeD]-Piperidide; lactam N-11) | 8.2
3 | CC[C@H](C)[C@@H]1NC(=O)[C@H](CC(C)C)N(C)C(=O)C[C@@H](C)NC(=O)[C@H](CC2CCC2)N(C)C(=O)C2(CCCC2)NC(=O)[C@@H]2CCCN2C(=O)[C@H](CCc2ccc(C(F)(F)F)c(Cl)c2)NC(=O)CN(C)C(=O)[C@H](CC2CCCCC2)N(C)C(=O)CN(C)C(=O)CN(C)C1=O [Compound 59] (cyclo([Ac5c][NMeCba][d(β3hA)][NMeL]I[Sar][Sar][NMeCha][Sar][hPhe(3-Cl-4-CF3)]P)) | 36
4 | CC[C@H](C)[C@@H]1NC(=O)[C@H](CC(C)C)N(C)C(=O)C[C@@H](C(=O)N2CCCC2)NC(=O)[C@H](C(C)C)N(C)C(=O)C2(CCCC2)NC(=O)[C@@H]2CCCN2C(=O)[C@H](CCc2ccc(C(F)(F)F)c(Cl)c2)NC(=O)CN(C)C(=O)[C@H](CC2CCCCC2)N(C)C(=O)CN(C)C(=O)CN(C)C1=O [Compound 508] ([NMeL]I[Sar][Sar][NMeCha][Sar][hPhe(3-Cl-4-CF3)]P[Ac5c][NMeV]D-Pyrrolidide; lactam N-11) | 12
5 | CCC[C@H]1C(=O)N[C@@H]([C@@H](C)CC)C(=O)N(C)CC(=O)N(C)CC(=O)N(C)[C@@H](CC2CCCCC2)C(=O)N(C)CC(=O)N[C@@H](CCc2ccc(C(F)(F)F)c(Cl)c2)C(=O)N2CC(F)(F)C[C@H]2C(=O)NC2(CCCC2)C(=O)N(C)[C@@H](C2CCCCC2)C(=O)N(C)[C@H](C(=O)N2CCCC2)CC(=O)N1C [Compound 1232] ([NMeNva]I[Sar][Sar][NMeCha][Sar][hPhe(3-Cl-4-CF3)][Pro(4,4-F2)][Ac5c][NMeChg][NMeD]-Pyrrolidide; lactam N-11) | 0.47
6 | CC[C@H](C)[C@@H]1NC(=O)[C@H](C)N(C)C(=O)C[C@@H](C(=O)N2CCCCC2)N(C)C(=O)[C@H](C2CCCCC2)N(C)C(=O)C2(CCCC2)NC(=O)[C@@H]2CCCN2C(=O)[C@H](CCc2cccc(Cl)c2)NC(=O)CN(C)C(=O)[C@H](CC2CCCCC2)N(C)C(=O)CN(C)C(=O)CN(C)C1=O [Compound 954] ([NMeA]I[Sar][Sar][NMeCha][Sar][hPhe(3-Cl)]P[Ac5c][NMeChg][NMeD]-Piperidide; lactam N-11) | 1.9
7 | CC[C@H](C)[C@@H]1NC(=O)[C@H](CC(F)(F)F)N(C)C(=O)C[C@@H](C(=O)N2CCCC2)N(C)C(=O)[C@H](C2CCCCC2)N(C)C(=O)C2(CCCC2)NC(=O)[C@@H]2CC(F)(F)CN2C(=O)[C@H](CCc2ccc(C(F)(F)F)c(Cl)c2)NC(=O)CN(C)C(=O)[C@H](Cc2ccc(C(F)(F)F)cc2)N(C)C(=O)CN(C)C(=O)CN(C)C1=O [Compound 1196] ([NMeAbu(4,4,4-F3)]I[Sar][Sar][NMePhe(4-CF3)][Sar][hPhe(3-Cl-4-CF3)][Pro(4,4-F2)][Ac5c][NMeChg][NMeD]-Pyrrolidide; lactam N-11) | 0.48
8 | C#CC[C@@H]1NC(=O)[C@H](Cc2cccc(I)c2)NC(=O)CN(C)C(=O)[C@H](Cc2ccc(OC(F)(F)F)cc2)N(C)C(=O)[C@@H]2CCN2C(=O)[C@H](C)N(C)C(=O)[C@H]([C@@H](C)CC)NC(=O)[C@H](CC(C)C)N(C)C(=O)C[C@@H](C(=O)N2CCCCC2)N(C)C(=O)[C@H](CC(C)C)NC(=O)C(C)(C)N(C)C1=O [Compound 1288] ([NMeL]I[NMeA][Aze][NMeY](CF3)[Sar][Phe(3-I)][Pra][NMeAib]L[NMeD]-Piperidide; lactam N-11) | 31
9 | CC[C@H](C)[C@@H]1NC(=O)[C@H](CC(C)C)N(C)C(=O)C[C@@H](C(=O)N2CCCCC2)N(C)C(=O)[C@H](C2CCCCC2)N(C)C(=O)C2(CCCC2)NC(=O)[C@@H]2CCCN2C(=O)[C@H](CCc2ccc(C(F)(F)F)c(Cl)c2)NC(=O)CN(C)C(=O)[C@H](CC(F)(F)F)N(C)C(=O)CN(C)C(=O)CN(C)C1=O [Compound 1841] ([NMeL]I[Sar][Sar][NMeAbu(4,4,4-F3)][Sar][hPhe(3-Cl-4-CF3)]P[Ac5c][NMeChg][NMeD]-Piperidide; lactam N-11) | 4.4
10 | CC[C@H](C)[C@@H]1NC(=O)[C@H](CC(C)C)N(C)C(=O)C[C@@H](C(=O)N2CCCCC2)N(C)C(=O)[C@H](CC(C)C)NC(=O)[C@H](Cc2ccccc2)N(C)C(=O)[C@H](C)NC(=O)[C@H](Cc2cccc(I)c2)NC(=O)CN(C)C(=O)[C@H](Cc2ccc(C)cc2)N(C)C(=O)CN(C)C(=O)CN(C)C1=O [Compound 619] ([NMeL]I[Sar][Sar][NMePhe(4-Me)][Sar][Phe(3-I)]A[NMeF]L[NMeD]-Piperidide; lactam N-11) | 19
11 | CC[C@H](C)[C@@H]1NC(=O)[C@H](C)N(C)C(=O)C[C@@H](C(=O)N2CCCC2)NC(=O)[C@H](CC(C)C)N(C)C(=O)[C@H](Cc2ccccc2)N(C)C(=O)[C@H](CC(C)C)NC(=O)[C@H](Cc2ccccc2)NC(=O)CN(C)C(=O)[C@H](Cc2ccc(Cl)cc2)N(C)C(=O)CN(C)C(=O)CN(C)C1=O [Compound 613] ([NMeA]I[Sar][Sar][NMePhe(4-Cl)][Sar]FL[NMeF][NMeL]D-Pyrrolidide; lactam N-11) | 500
12 | CC[C@H](C)[C@@H]1NC(=O)[C@H](CC(C)C)N(C)C(=O)C[C@@H](C)N(C)C(=O)[C@H](C2CC2)N(C)C(=O)C2(CCCC2)NC(=O)[C@@H]2CCCN2C(=O)[C@H](CCc2ccc(C(F)(F)F)c(Cl)c2)NC(=O)CN(C)C(=O)[C@H](CC2CCCCC2)N(C)C(=O)CN(C)C(=O)CN(C)C1=O [Compound 874] (cyclo([Ac5c][NMeGly(cPr)][NMedβ3hAla][NMeL]I[Sar][Sar][NMeCha][Sar][hPhe(3-Cl-4-CF3)]P)) | 25
13 | CC[C@H](C)[C@@H]1NC(=O)[C@H](CC(C)C)N(C)C(=O)C[C@@H](C(=O)N2CCCC2)N(C)C(=O)[C@H](C2CCCC2)N(C)C(=O)C2(CCCC2)NC(=O)[C@@H]2CCCN2C(=O)[C@H](CCc2ccc(C(F)(F)F)c(Cl)c2)NC(=O)CN(C)C(=O)[C@H](CC2CCCCC2)N(C)C(=O)CN(C)C(=O)CN(C)C1=O [Compound 1818] ([NMeL]I[Sar][Sar][NMeCha][Sar][hPhe(3-Cl-4-CF3)]P[Ac5c][NMeGly(cPent)][NMeD]-Pyrrolidide; lactam N-11) | 0.4
14 | CCCC[C@@H]1NC(=O)[C@H](Cc2cccc(I)c2)NC(=O)CN(C)C(=O)[C@H](CC2CCC2)N(C)C(=O)[C@@H]2CCN2C(=O)[C@H](C)N(C)C(=O)[C@H]([C@@H](C)CC)NC(=O)[C@H](CC(C)C)N(C)C(=O)C[C@@H](C(=O)N2CCCCC2)N(C)C(=O)[C@H](CC(C)C)NC(=O)C(C)(C)N(C)C1=O [Compound 1413] ([NMeL]I[NMeA][Aze][NMeCba][Sar][Phe(3-I)][Nle][NMeAib]L[NMeD]-Piperidide; lactam N-11) | 190
